Laboratory results from patent US9980943B2, “Methods of treating muscular dystrophy” (BOARD OF REGENTS OF THE NEVADA SYSTEM OF HIGHER EDUCATION, …, priority 2013, dated 2018).

Columns and labels:
Type in all cases: cell-based, mouse
[1] = test system: β-galactosidase in CMV-LacZ C2C12 myoblasts; test: CMV-LacZ secondary screen in C2C12 myoblasts (β-Gal stabilizing assay); settings: CMV-LacZ C2C12 myoblasts
Procedure, shortened: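 C2C12 myoblasts stably carrying a linearized CMV-driven LacZ construct, clone chosen by β-gal level in the myoblast FDG assay. Compounds tested in 96-well dose-response at 0.5, 1, 5, 10, 20 and 40 μM, N=2 replicates per point, to detect β-gal stabilization.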

[2] = test system: α7 integrin (LacZ reporter in α7+/LacZ myotubes); test: Myotube α7 integrin FDG assay (Burkin assay in myotubes, 96-well); settings: myotubes
[3] = test system: β-galactosidase in CMV-LacZ C2C12 myotubes; test: CMV-LacZ secondary screen in C2C12 myotubes (β-Gal stabilizing assay); settings: C2C12 CMV-LacZ myotubes, fold relative to DMSO
Procedure, shortened: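 Stable CMV-LacZ C2C12 clone; six-point curve 0.5–40 μM; duplicates.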

[4] = test system: α7 integrin (LacZ reporter in α7βgal+/− myoblasts); test: Myoblast α7+/LacZ integrin FDG assay (Burkin assay in myoblasts, 96-well); settings: α7+/LacZ myoblasts, 96-well

| Compound | CMV-LACZ in Myoblasts (β-galactosidase activity relative to DMSO) ([1]; 0.5 uM) | CMV-LACZ in Myoblasts (β-galactosidase activity relative to DMSO) ([1]; 1 uM) | CMV-LACZ in Myoblasts (β-galactosidase activity relative to DMSO) ([1]; 5 uM) | CMV-LACZ in Myoblasts (β-galactosidase activity relative to DMSO) ([1]; 10 uM) | CMV-LACZ in Myoblasts (β-galactosidase activity relative to DMSO) ([1]; 20 uM) | CMV-LACZ in Myoblasts (β-galactosidase activity relative to DMSO) ([1]; 40 uM) | Burkin Assay in Myotubes, α7 integrin LacZ reporter signal relative to DMSO ([2]; 0.5 uM) | Burkin Assay in Myotubes, α7 integrin LacZ reporter signal relative to DMSO ([2]; 1 uM) | Burkin Assay in Myotubes, α7 integrin LacZ reporter signal relative to DMSO ([2]; 5 uM) | Burkin Assay in Myotubes, α7 integrin LacZ reporter signal relative to DMSO ([2]; 10 uM) | Burkin Assay in Myotubes, α7 integrin LacZ reporter signal relative to DMSO ([2]; 20 uM) | Burkin Assay in Myotubes, α7 integrin LacZ reporter signal relative to DMSO ([2]; 40 uM) | CMV-LACZ in Myotubes, signal relative to DMSO ([3]; 0.5 uM) | CMV-LACZ in Myotubes, signal relative to DMSO ([3]; 1 uM) | CMV-LACZ in Myotubes, signal relative to DMSO ([3]; 5 uM) | CMV-LACZ in Myotubes, signal relative to DMSO ([3]; 10 uM) | CMV-LACZ in Myotubes, signal relative to DMSO ([3]; 20 uM) | CMV-LACZ in Myotubes, signal relative to DMSO ([3]; 40 uM) | Burkin Assay in Myoblasts, signal relative to DMSO ([4]; 0.5 uM) | Burkin Assay in Myoblasts, signal relative to DMSO ([4]; 1 uM) | other results |
| --- | --- | --- | --- | --- | --- | --- | --- | --- | --- | --- | --- | --- | --- | --- | --- | --- | --- | --- | --- | --- | --- |
| CNC(=O)CSc1nnc(-c2ccc3c(c2)OCO3)n1C [MLS000717689-01] | 1.0125 | 1.0203 | 1.1129 | 1.0936 | 1.0407 | 0.8996 | 1.111 | 0.9006 | 1.048 | 1.076 | 0.8283 | 0.7135 | 0.8415 | 1.0956 | 0.9686 | 0.9569 | 0.9576 | 0.9129 | 1.158 | 1.042 | Burkin Assay in Myoblasts, signal relative to DMSO ([4]; 5 uM): 1.032; Burkin Assay in Myoblasts, signal relative to DMSO ([4]; 10 uM): 1.038; Burkin Assay in Myoblasts, signal relative to DMSO ([4]; 20 uM): 0.96; Burkin Assay in Myoblasts, signal relative to DMSO ([4]; 40 uM): 0.9866 |
| CCn1c(=O)c2cc(C(=O)N(C)c3cc(C)ccc3OC)sc2c2ccccc21 [MLS000731285-01] | 1.1747 | 1.0853 | 1.0851 | 0.8436 | 0.9582 | 0.6572 | 0.8544 | 0.961 | 0.8695 | 0.9409 | 0.69 | 0.1953 | 1.2048 | 1.0562 | 1.4794 | 1.3012 | 1.0310 | 0.6450 | 1.064 | 0.9235 | Burkin Assay in Myoblasts, signal relative to DMSO ([4]; 5 uM): 0.7727; Burkin Assay in Myoblasts, signal relative to DMSO ([4]; 10 uM): 0.7344; Burkin Assay in Myoblasts, signal relative to DMSO ([4]; 20 uM): 0.604; Burkin Assay in Myoblasts, signal relative to DMSO ([4]; 40 uM): 0.6077 |
| Cn1cc(CN(CCO)Cc2cccs2)c(-c2ccccc2F)n1 [MLS000732652-01] | 0.6700 | 0.7744 | 1.1327 | 1.1235 | 0.9374 | 0.7856 | 1.092 | 1.116 | 1.1938 | 1.141 | 0.6797 | 0.7309 | 1.1615 | 0.8859 | 1.0614 | 1.0697 | 0.8518 | 1.0329 | 1.176 | 1.191 | Burkin Assay in Myoblasts, signal relative to DMSO ([4]; 5 uM): 0.972; Burkin Assay in Myoblasts, signal relative to DMSO ([4]; 10 uM): 1.2648; Burkin Assay in Myoblasts, signal relative to DMSO ([4]; 20 uM): 1.0346; Burkin Assay in Myoblasts, signal relative to DMSO ([4]; 40 uM): 0.8792 |
